From the supplement of paper PMC10627819

Tests used:
Assay in all cases: fitness (endpoint OD595 vs no drug) (fraction); higher = more growth
[1] = system: S. aureus Newman; conditions: main component drawn
Outline: (§1)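 Fitness was defined as the optical density at the transition into stationary phase relative to the robust mean of no-drug control wells. Values were capped at 1. Cultures were started at OD595 0.01 in 384-well plates (30 µl, or 55 µl for S. pneumoniae) in TSB, LB Lennox or CY at 37 °C. OD595 was recorded every 30 min over 14 h, with the first reading subtracted as background.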

[2] = system: B. subtilis 168; conditions: main component drawn
Outline: as §1

[3] = system: S. aureus DSM 20231
Outline: as §1

[4] = system: S. pneumoniae D39V
Outline: as §1

CC[C@H](C)[C@H](N)C1=N[C@H](C(=O)N[C@@H](CC(C)C)C(=O)N[C@H](CCC(=O)O)C(=O)N[C@H](C(=O)N[C@H]2CCCCNC(=O)[C@H](CC(N)=O)NC(=O)[C@@H](CC(=O)O)NC(=O)[C@H](Cc3cnc[nH]3)NC(=O)[C@@H](Cc3ccccc3)NC(=O)[C@H]([C@@H](C)CC)NC(=O)[C@@H](CCCN)NC2=O)[C@@H](C)CC)CS1 [Bacitracin] + CC1(C)S[C@@H]2[C@H](NC(=O)Cc3ccccc3)C(=O)N2[C@H]1C(=O)O [Penicillin G]
fitness, [1]
Conditions	first compound 18.75 µg/mL	first compound 37.5 µg/mL	first compound 75 µg/mL
partner 0.0195 µg/mL	0.642	0.35	0.018
partner 0.039 µg/mL	0.698	0.2	0.0199
partner 0.078 µg/mL	0.69	–	0.0358

CC[C@H](C)[C@H](N)C1=N[C@H](C(=O)N[C@@H](CC(C)C)C(=O)N[C@H](CCC(=O)O)C(=O)N[C@H](C(=O)N[C@H]2CCCCNC(=O)[C@H](CC(N)=O)NC(=O)[C@@H](CC(=O)O)NC(=O)[C@H](Cc3cnc[nH]3)NC(=O)[C@@H](Cc3ccccc3)NC(=O)[C@H]([C@@H](C)CC)NC(=O)[C@@H](CCCN)NC2=O)[C@@H](C)CC)CS1 [Bacitracin] + CN(C)[C@@H]1C(O)=C(C(N)=O)C(=O)[C@@]2(O)C(O)=C3C(=O)c4c(O)ccc(Cl)c4[C@@](C)(O)[C@H]3C[C@@H]12 [Chlortetracycline]
fitness, [2]
Conditions	first compound 37.5 µg/mL	first compound 75 µg/mL	first compound 150 µg/mL
partner 0.0475 µg/mL	0.865	0.856	0.723
partner 0.095 µg/mL	0.753	0.68	0.497
partner 0.19 µg/mL	–	–	0.0687

CC[C@H](C)[C@H](N)C1=N[C@H](C(=O)N[C@@H](CC(C)C)C(=O)N[C@H](CCC(=O)O)C(=O)N[C@H](C(=O)N[C@H]2CCCCNC(=O)[C@H](CC(N)=O)NC(=O)[C@@H](CC(=O)O)NC(=O)[C@H](Cc3cnc[nH]3)NC(=O)[C@@H](Cc3ccccc3)NC(=O)[C@H]([C@@H](C)CC)NC(=O)[C@@H](CCCN)NC2=O)[C@@H](C)CC)CS1 [Bacitracin] + CO[C@@]12[C@H](COC(N)=O)C3=C(C(=O)C(C)=C(N)C3=O)N1C[C@@H]1N[C@@H]12 [Mitomycin C]
fitness, [1]
Conditions	first compound 18.75 µg/mL	first compound 37.5 µg/mL	first compound 75 µg/mL
partner 0.0156 µg/mL	0.56	–	0.0457
partner 0.0312 µg/mL	0.419	0.0317	0.0152
partner 0.0625 µg/mL	0.229	0.0144	0

CC[C@H](C)[C@H](N)C1=N[C@H](C(=O)N[C@@H](CC(C)C)C(=O)N[C@H](CCC(=O)O)C(=O)N[C@H](C(=O)N[C@H]2CCCCNC(=O)[C@H](CC(N)=O)NC(=O)[C@@H](CC(=O)O)NC(=O)[C@H](Cc3cnc[nH]3)NC(=O)[C@@H](Cc3ccccc3)NC(=O)[C@H]([C@@H](C)CC)NC(=O)[C@@H](CCCN)NC2=O)[C@@H](C)CC)CS1 [Bacitracin] + N[C@@H]1CONC1=O [Cycloserine D]
fitness
Conditions	first compound 18.75 µg/mL	first compound 37.5 µg/mL	first compound 75 µg/mL	first compound 150 µg/mL
[1], partner 0.375 µg/mL	0.761	0.282	0.0299	–
[1], partner 0.75 µg/mL	0.761	0.28	0.0202	–
[1], partner 1.5 µg/mL	0.74	0.202	0.0116	–
[2], partner 0.125 µg/mL	–	0.893	0.89	0.737
[2], partner 0.25 µg/mL	–	0.894	0.898	–
[2], partner 0.5 µg/mL	–	0.858	0.858	–

CC[C@H](C)[C@H](N)C1=N[C@H](C(=O)N[C@@H](CC(C)C)C(=O)N[C@H](CCC(=O)O)C(=O)N[C@H](C(=O)N[C@H]2CCCCNC(=O)[C@H](CC(N)=O)NC(=O)[C@@H](CC(=O)O)NC(=O)[C@H](Cc3cnc[nH]3)NC(=O)[C@@H](Cc3ccccc3)NC(=O)[C@H]([C@@H](C)CC)NC(=O)[C@@H](CCCN)NC2=O)[C@@H](C)CC)CS1 [Bacitracin] + O=C(O)[C@H]1/C(=C/CO)O[C@@H]2CC(=O)N21 [Clavulanic acid]
fitness, [2]
Conditions	partner 1.5 µg/mL	partner 3 µg/mL	partner 6 µg/mL
first compound 37.5 µg/mL	0.906	0.86	0.795
first compound 75 µg/mL	0.915	0.838	0.734

fitness, [1], one replicate
Conditions	first compound 18.75 µg/mL	first compound 37.5 µg/mL	first compound 75 µg/mL
partner 0.03125 µg/mL	0.682	0.298	0.0064
partner 0.0625 µg/mL	0.673	0.251	0.0152
partner 0.125 µg/mL	0.686	0.219	0.0264

CC(=O)NC[C@H]1CN(c2ccc(N3CCOCC3)c(F)c2)C(=O)O1 [Linezolid] + CO[C@@]12[C@H](COC(N)=O)C3=C(C(=O)C(C)=C(N)C3=O)N1C[C@@H]1N[C@@H]12 [Mitomycin C]
Conditions	fitness
[3], first compound 0.125 µg/mL, partner 0.0156 µg/mL	0.681
[3], first compound 0.125 µg/mL, partner 0.0312 µg/mL	0.68
[3], first compound 0.125 µg/mL, partner 0.0625 µg/mL	0.531
[3], first compound 0.25 µg/mL, partner 0.0156 µg/mL	0.466
[3], first compound 0.25 µg/mL, partner 0.0312 µg/mL	0.458
[3], first compound 0.25 µg/mL, partner 0.0625 µg/mL	0.296
[3], first compound 0.5 µg/mL, partner 0.0156 µg/mL	0.141
[3], first compound 0.5 µg/mL, partner 0.0312 µg/mL	0.105
[3], first compound 0.5 µg/mL, partner 0.0625 µg/mL	0.0726
[4], first compound 0.105 µg/mL, partner 0.002 µg/mL	0.745
[4], first compound 0.105 µg/mL, partner 0.004 µg/mL	0.669
[4], first compound 0.105 µg/mL, partner 0.008 µg/mL	0.524
[4], first compound 0.2 µg/mL, partner 0.001075 µg/mL	0.745
[4], first compound 0.2 µg/mL, partner 0.00215 µg/mL	0.733
[4], first compound 0.2 µg/mL, partner 0.0043 µg/mL	0.634
[4], first compound 0.21 µg/mL, partner 0.002 µg/mL	0.563
[4], first compound 0.21 µg/mL, partner 0.004 µg/mL	0.563
[4], first compound 0.21 µg/mL, partner 0.008 µg/mL	0.397
[4], first compound 0.4 µg/mL, partner 0.001075 µg/mL	0.618
[4], first compound 0.4 µg/mL, partner 0.00215 µg/mL	0.626
[4], first compound 0.4 µg/mL, partner 0.0043 µg/mL	0.366
[4], first compound 0.42 µg/mL, partner 0.002 µg/mL	0.414
[4], first compound 0.42 µg/mL, partner 0.004 µg/mL	0.389
[4], first compound 0.42 µg/mL, partner 0.008 µg/mL	0.23
[4], first compound 0.8 µg/mL, partner 0.001075 µg/mL	0.316
[4], first compound 0.8 µg/mL, partner 0.00215 µg/mL	0.323
[4], first compound 0.8 µg/mL, partner 0.0043 µg/mL	0.258

[3], first compound 1 µg/mL, one replicate
Conditions	fitness
partner 0.0156 µg/mL	0.0176
partner 0.0312 µg/mL	0.0107
partner 0.0625 µg/mL	0.0169
